99 molecules from ChEMBL document CHEMBL3507680, “University of Dundee, Gates Library screen for HepG2 cell viability” can be followed below.

This series can be described thus: Human HepG2 cell viability assay in 384 well format. In kind it is toxicity, cell-based. Set-up: dose 125 nL, time 70.5 hour; cytotoxicity at 70.5 h: concentration not given beside the values. The following applies: HepG2 cells, read-out: Inhibition.
`CN1CCN(Cc2ccccc2Oc2nccc3occc23)CC1`: the cytotoxicity at 70.5 h was -1.68%. In the case of `O=C(Nc1ccc(F)cc1)N1CCN(Cc2noc(C3CC3)n2)CC1` it was 1.53%. `CC(C)n1ccnc1CN1C(=O)OC[C@@H]1c1ccccc1`: the cytotoxicity at 70.5 h was -2.47%. For `CN(C)C(=O)CN(C)C(=O)c1cccn1CCc1ccccc1`, the cytotoxicity at 70.5 h is -3.57%. Turning to `CCn1ccc(NS(=O)(=O)c2cccc(CSC)c2)n1`, the cytotoxicity at 70.5 h came out at 3.12%.

Take `CN(C)C[C@@H]1CCC[C@@H]2CN(c3nccc(C(F)(F)F)n3)C[C@@H]21`: the cytotoxicity at 70.5 h turned out to be 23.3%.

On to `CN1C(=O)CCCC12CCCN(Cc1nccs1)C2` (centres undefined), for which the cytotoxicity at 70.5 h is 9.31%. Next, `CC(C)(C)c1nnc(CSc2ccccn2)o1`: -6.49%.

Regarding `Cn1nc(C(=O)NC2(c3ccc(Cl)cc3)CCCC2)ccc1=O`, the cytotoxicity at 70.5 h is 24.7%.

As to `Cn1cc(C2CCCN2CCc2nc3ccccc3c(=O)[nH]2)cn1` (centres undefined), the cytotoxicity at 70.5 h was -2.12%.

For `Cc1ccc(CN2CCCn3cnc(COCC4CC4)c3C2)o1`, the cytotoxicity at 70.5 h is -1.19%.

As for `CC(C)=CCS(=O)(=O)Cc1ccn(-c2cccc(F)c2)n1`, the cytotoxicity at 70.5 h was -6.79%. Regarding `O[C@@H]1C[C@@](CNCC2CCCC2)(COc2cccnc2)C[C@@H]1O`, the cytotoxicity at 70.5 h is -6.04%. In the case of `Cc1noc(COCC(=O)Nc2ccc(Br)c(C)n2)n1` it was 24.3%. On to `COc1ccc(F)c(CNC2CCCc3nc(N(C)C)ncc32)c1` (centres undefined), for which the cytotoxicity at 70.5 h is -11.5%. Take `O=C(NCC1CCOC1)c1ccc(OCC(F)(F)F)nc1` (centres undefined): the cytotoxicity at 70.5 h was -5.4%. For `CC(C)(C)CC(=O)N1CC[C@@H](CC(=O)O)[C@@H](CCN2CCCCC2)C1`, the cytotoxicity at 70.5 h was determined as 8.46%. In the case of `COc1ccc(CNC(=O)Cn2ccc3sccc3c2=O)cc1`, the cytotoxicity at 70.5 h is 12.8%. In the case of `COc1ccc(C(=O)N(Cc2cnn(C)c2)C(C)C)cc1Br`, the cytotoxicity at 70.5 h is -9.53%.

`Cn1c2c(ccc1=O)CC(NC(=O)c1ccsc1)CC2` (centres undefined): the cytotoxicity at 70.5 h was -2.29%. For the molecule `O=C(Cc1ccc2c(c1)OCO2)N1CCCN(c2nccs2)CC1`, the cytotoxicity at 70.5 h is -8.59%. `Cc1ccc(CN2CCC3(C2)C(=O)N(CC(N)=O)c2ccccc23)s1` (centres undefined): the cytotoxicity at 70.5 h is -3.49%. Take `Cc1nn(C)c2c(N3CCSCC3)nc(C3CC3)nc12`: the cytotoxicity at 70.5 h was -4.86%. `COc1ncccc1NC(=O)N(Cc1ccco1)C1CC1`: the cytotoxicity at 70.5 h is -14.3%.

As to `CNS(=O)(=O)c1ccc(CNC(=O)N(C)C(C)COC)cc1` (centres undefined), the cytotoxicity at 70.5 h is -97.7%. With `O=C(c1ccnc(-n2ccnc2)c1)N1CCCC(n2cccn2)C1` (centres undefined), the cytotoxicity at 70.5 h is -2.44%. In the case of `CCOc1cncc(N2CCN(c3ccccc3O)CC2)n1`, the cytotoxicity at 70.5 h amounted to 13.6%. In the case of `O=C(NCCN1CCC(c2cccs2)CC1)c1ccccc1C(F)(F)F` it was 1.14%; in that of `CCN(CC)Cc1ccc(C(=O)N2CCN(CC(C)O)CC2)cc1` (centres undefined), -4.2%; in that of `CCN(Cc1ccc(C)o1)C(=O)C(C)n1ccnc1C(C)C` (centres undefined), -16.9%. Next, `CC(NC(=O)NCCCc1n[nH]c(N)c1C#N)c1ccc(F)c(F)c1` (centres undefined): -2.56%; `CCOCC(=O)NCC(CC)(OC)c1ccccc1` (centres undefined): -12.4%. For the molecule `Cc1cc(NC(=O)CN2CCOC(CN(C)C)C2)n(C)n1` (centres undefined), the cytotoxicity at 70.5 h was 17.6%. As for `Cc1nc(C)n(CC2CCCN2Cc2ccccn2)n1` (centres undefined), the cytotoxicity at 70.5 h was -6.2%. On to `COc1ccc(NC(=O)C2CCOC2)c(N2CCN(C(C)=O)CC2)n1` (centres undefined), for which the cytotoxicity at 70.5 h was found to be 4.61%.

For the molecule `CCCN(CCC)c1ncc(S(=O)(=O)c2cccc(C)c2)c(N)n1`, the cytotoxicity at 70.5 h was -20.1%. Turning to `COCCN1C[C@H](NC(=O)CCC(F)(F)F)[C@@H](C(C)C)C1`, the cytotoxicity at 70.5 h was -2.58%. In the case of `CCCc1cncnc1N1CCC(NCc2cc3ccccc3[nH]2)CC1` it was 8.09%. For `NCCN1C(=O)CC[C@H]2CN(Cc3ccc4occc4c3)CC[C@H]21`, the cytotoxicity at 70.5 h was -8.13%. For the molecule `CCn1c(N)nc2cc(C(=O)NCCc3ccccc3F)cnc21`, the cytotoxicity at 70.5 h was -28.6%. As to `Cc1nc(C)n(CC2CCCN(Cc3cccc4c3OCCO4)C2)n1` (centres undefined), the cytotoxicity at 70.5 h came out at 12%. For the molecule `COc1cccc(CNc2cc(C)nc(-c3ccncc3)n2)c1OC`, the cytotoxicity at 70.5 h is -6.44%. `COc1ccc(CC(=O)N2CCc3nnc(N(C)C)cc3C2)cc1F`: the cytotoxicity at 70.5 h is -2.52%. In the case of `COC(=O)C(O)C1CCN(Cc2cccc(-n3cccn3)c2)CC1` (centres undefined) it was -1.06%; in that of `O=C(c1cnc(-c2cccnc2)nc1)N1CCSCC1`, 21.6%; in that of `Cc1cc(C(N)=O)nc(C2(C)CCCN2Cc2cnn(C)c2C)n1` (centres undefined), -0.0176%. In the case of `O=C(c1ccc(-c2ccc(O)nc2)s1)N1CCCCC1`, the cytotoxicity at 70.5 h is -8.32%.

Regarding `COc1ccccc1CN(Cc1nc(Cc2ccccc2)no1)C1CC1`, the cytotoxicity at 70.5 h was -10.7%. As for `O=C(NCc1cnn2cccnc12)c1cccc(CC2CCNCC2)c1`, the cytotoxicity at 70.5 h was 5.06%. As to `COc1cc(N2C[C@@H]3COC[C@]3(COc3ncccc3F)C2)ncn1`, the cytotoxicity at 70.5 h was -9.91%. Consider `CC(C)[C@@H](N)C(=O)NCc1cccnc1N1CCc2ccccc2C1`, for which the cytotoxicity at 70.5 h is -4.97%. For `CN1CCN(Cc2ccc(-c3ccc(C(N)=O)cc3)nc2)CC1`, the cytotoxicity at 70.5 h is -7.94%. Take `Cc1ccccc1SC1CCN(C(=O)C2CNCC(=O)N2)CC1` (centres undefined): the cytotoxicity at 70.5 h is -1.6%. `Cc1ccc(S(=O)(=O)N2CCC3(CC(C(=O)NC4CCC4)=NO3)C2)cc1` (centres undefined): the cytotoxicity at 70.5 h is 18.4%. Next, `O=c1cc2c(nn1CN1CCN(c3ccc(F)cc3)CC1)CCC2`: -13.2%; `CC(C)c1nc(CN(C)C(=O)Cn2nc3ccccc3n2)no1`: -10.4%.

Regarding `CN(C)CC1(O)CCN(S(=O)(=O)c2ccc(F)c(F)c2)C1` (centres undefined), the cytotoxicity at 70.5 h is 32.6%. For `CNc1ccc(CC2CCCN(C(=O)c3cnc(C)nc3)C2)nn1` (centres undefined), the cytotoxicity at 70.5 h is -6.58%. Next, `Cc1occc1C(=O)N1C[C@@H]2[C@@H](C1)OCC(=O)N2Cc1cccnc1`: -2.83%; `CCCn1cc(C(=O)NC(CC(=O)O)c2ccco2)c(C)n1` (centres undefined): -8.82%. Next, `CN(C)CCN1C(=O)CCCC12CCCN(Cc1cccs1)C2` (centres undefined): -9.38%. For the molecule `Cc1cccc(C(C)(C)CNC(=O)CN(C)c2cnccn2)c1`, the cytotoxicity at 70.5 h was -2.49%. Take `CC(C)c1nccn1C1CCCN(C(=O)c2ccc(=O)n(C)n2)C1` (centres undefined): the cytotoxicity at 70.5 h is -8.03%. As to `CN(C)Cc1cnc2n1CCN(C(=O)C1CC=CC1)CC2`, the cytotoxicity at 70.5 h is -12.7%. Take `O=C(CC1CCCC1)N1CCCC1c1ccc(CN2CCOCC2)cn1` (centres undefined): the cytotoxicity at 70.5 h is -0.855%. On to `O=C(NCCn1ccnc1)N1CCN(Cc2cccs2)CC1`, for which the cytotoxicity at 70.5 h is -17.2%. Turning to `CCCN(CCC)CCNc1c(-c2ccccc2)c(=O)c1=O`, the cytotoxicity at 70.5 h turned out to be 1.06%. Turning to `CCN(CC)c1ncc(Cl)c(C(=O)NC2CC2)n1`, the cytotoxicity at 70.5 h is -0.0542%. In the case of `CC(CN1CCOCC1)NC(=O)N1CCN(S(C)(=O)=O)CC1` (centres undefined) it was 27.9%; in that of `COc1ccc(CN2CCOC[C@H](OCCC(C)C)C2)cc1`, -4.37%; in that of `O=C(NCC1(Sc2ccccc2)CC1)c1cc[nH]n1`, -1.79%.

Consider `CN1CCN(CCNC(=O)C(OC2CCCC2)c2ccccc2)CC1` (centres undefined), for which the cytotoxicity at 70.5 h amounted to 5.3%.

Regarding `C[C@@H](O)[C@H](NC(=O)c1csc2nc(-c3ccccc3F)cn12)C(N)=O`, the cytotoxicity at 70.5 h turned out to be 2.4%. In the case of `CC(=O)c1cccc(S(=O)(=O)NCCNC(=O)c2snnc2C)c1` it was 7.7%; in that of `COc1ccc(Cl)cc1NC(=O)N(C)CC(O)COCCOC(C)C` (centres undefined), -4.88%. `CN(C)CC(=O)N1CCOC2(CCCN(c3ncccc3F)C2)C1` (centres undefined): the cytotoxicity at 70.5 h stood at 4.23%. As to `Cc1nc(CN2CCCC(Nc3ncnc4ccsc34)C2)no1` (centres undefined), the cytotoxicity at 70.5 h was -9.16%. On to `CCN(CCNS(=O)(=O)N1CCOCC1)C(=O)OC(C)(C)C`, for which the cytotoxicity at 70.5 h is 30.7%.

With `Cc1c(C(=O)NC2(C#N)CCSC2)cnn1-c1ccccc1Cl` (centres undefined), the cytotoxicity at 70.5 h stood at 1.06%. With `CNc1cc(CCNC(=O)c2cccnc2)nc(-c2ccncc2)n1`, the cytotoxicity at 70.5 h was -7.53%. For `Cc1cc(N2CCN(C(=O)c3cnn(C(C)C)c3)CC2)cc(C)n1`, the cytotoxicity at 70.5 h came to 7.11%. Consider `CN1CCN(c2nc(O)cc(Cc3ccccc3F)n2)CC1`, for which the cytotoxicity at 70.5 h is -4.68%. For `CN1CC(=O)N(c2cnn(C)c2)CC12CCN(Cc1cccs1)C2` (centres undefined), the cytotoxicity at 70.5 h was -1.01%. On to `Cc1ccc(N2CCO[C@H]3CN(C(=O)c4cccc(C)n4)C[C@H]32)nn1`, for which the cytotoxicity at 70.5 h was -9.8%.

`CN(CC1(CO)CCCC1)c1nc2c(c(=O)[nH]1)Cc1ccccc1OC2`: the cytotoxicity at 70.5 h was -10%.

As to `CC(CC(=O)NCCS(N)(=O)=O)C1CCCCC1` (centres undefined), the cytotoxicity at 70.5 h is -9.82%.

Regarding `CCOCC1CN(C(=O)Cc2ccccn2)Cc2c1cnn2C` (centres undefined), the cytotoxicity at 70.5 h is -7.19%. For `CCCC(=O)Nc1cc2c(cc1OC)NC(=O)CC2c1ccc(CC)o1` (centres undefined), the cytotoxicity at 70.5 h was 22.1%.

Consider `CC(C)c1nnc2n1CCN(C(=O)c1ccc3cc[nH]c3c1)C2`, for which the cytotoxicity at 70.5 h turned out to be 2.26%. Next, `CCC(CO)N(Cc1ccco1)C(=O)c1cccnc1NC` (centres undefined): -2.71%; `CCC(O)CN(Cc1cccc(C(=O)N(C)C)c1)c1ccccc1` (centres undefined): -1.87%; `CCOC1Sc2nnc(C)n2N=C1c1ccc(Cl)cc1` (centres undefined): -8.8%. In the case of `CN(C)C(=O)CN1C[C@H]2CCN(c3ncccn3)CC[C@H]2S1(=O)=O` it was -0.338%; in that of `CCN(CC)S(=O)(=O)NCCc1cc(C)ccc1OC`, -15.7%.

Take `CCC(CC)C(=O)N1CCN(C)c2ncccc2C1`: the cytotoxicity at 70.5 h was -2.64%. In the case of `CC(C)(C)NC(=O)NCc1cnn2ccccc12`, the cytotoxicity at 70.5 h was -9.3%. For the molecule `NC(=O)c1cccc(CS(=O)(=O)CC(O)Cn2cccn2)c1` (centres undefined), the cytotoxicity at 70.5 h is -4.59%. In the case of `O=c1[nH][nH]cc1-c1ccnc(NCCN2CCCC2)n1`, the cytotoxicity at 70.5 h turned out to be 50.4%.

Turning to `Cc1csc(N(C)C(=O)C2CC(=O)N(CCc3ccccc3)C2)n1` (centres undefined), the cytotoxicity at 70.5 h is 4.67%.
